Results published in patent publication US9630977B2, “Cephalosporin derivatives and pharmaceutical compositions thereof” (Legochem Biosciences, Inc., priority 2011, dated 2017).
Values after ≈ are worked out from the molar mass of the structure shown. Like-named read-outs stand apart in the source and are kept apart here. Each block holds one compound with its values, some of them ahead of it.

Tests used:
Experiment in all cases: In vitro antibacterial activity test (broth microdilution)
Type in all cases: cell-based
[1] = test system: K. pneumoniae 2011E
Description: (§1) To evaluate antibacterial activity of each of the compounds of Examples 1 to 68, in vitro antibacterial activity test was performed.
(§2) The in vitro antibacterial activity was evaluated by measuring MIC90 (ug/mL) of each of the compounds of Examples 1 to 68, which is defined as the lowest concentration of an antibiotic that will inhibit the visible growth of 90% of microorganisms after incubation as compared with a control group to which the antibiotic is not treated. MIC90 values were measured by the broth microdilution method developed by the Clinical and Laboratory Standards Institute (CLSI) (see CLSI M7-A5, Methods for Dilution Antimicrobial Susceptibility Test for Bacteria that Grow Aerobically-Fifth Edition (2000): CLSI, Villanova, Pa.).
(§3) In vitro antibacterial activity was measured with respect to the following 19 clinical isolates: M. catarrhalis; P. aeruginosa (5 strains); K. pneumoniae (6 strains); A. baumannii (3 strains); E. coli (2 strains); A. calcoaceticus; and E. cloacae.
(§4) Test compounds each (the cephalosporin derivative compounds prepared in Examples 1 to 68) were dissolved in DMSO at the concentration of 10,240 ug/mL, were diluted by two fold with DMSO, and then were diluted by twenty fold with sterilized distilled water. The final concentration in the antibacterial activity test was in the range of […] to 128 ug/mL, and the final concentration of DMSO used as an adjuvant was 2.5% (V/V).

[2] = test system: A. baumannii 52
Description: as §1, §2, §3, §4

[3] = test system: K. pneumoniae β11
Description: as §1, §2, §3, §4

[4] = test system: K. pneumoniae β9
Description: as §1, §2, §3, §4

[5] = test system: P. aeruginosa 37
Description: as §1, §2, §3, §4

[6] = test system: K. pneumoniae β13
Description: as §1, §2, §3, §4

[7] = test system: P. aeruginosa 6065Y
Description: as §1, §2, §3, §4

[8] = test system: P. aeruginosa 43
Description: as §1, §2, §3, §4

[9] = test system: P. aeruginosa 40
Description: as §1, §2, §3, §4

[10] = test system: E. cloacae β19
Description: as §1, §2, §3, §4

[11] = test system: E. coli AG100
Description: as §1, §2, §3, §4

[12] = test system: A. calcoaceticus ATCC15473
Description: as §1, §2, §3, §4

[13] = test system: E. coli β4
Description: as §1, §2, §3, §4

[14] = test system: K. pneumoniae β10
Description: as §1, §2, §3, §4

[15] = test system: P. aeruginosa 1912E
Description: as §1, §2, §3, §4

[16] = test system: A. baumannii 46
Description: as §1, §2, §3, §4

[17] = test system: M. catarrhalis 2524
Description: as §1, §2, §3, §4

[18] = test system: A. baumannii 49
Description: as §1, §2, §3, §4

[19] = test system: K. pneumoniae β14
Description: as §1, §2, §3, §4

[20] = Pseudomonas aeruginosa, 37, P. aeruginosa 37
[21] = Acinetobacter calcoaceticus, ATCC15473, A. calcoaceticus ATCC15473
[22] = Acinetobacter baumannii, 46, A. baumannii 46
[23] = Acinetobacter baumannii, 49, A. baumannii 49

SMILES: CC(C)(O/N=C(\C(=O)N[C@@H]1C(=O)N2C(C(=O)[O-])=C(/C=C/C[n+]3cnc(N)c(NC(=O)CCN)c3)CSC12)c1csc(N)n1)C(=O)O (stereo partly shown) [Compound 60]
MIC90 ([1]; Klebsiella pneumoniae, 2011E): 0.25 µg/mL (≈ 0.371 µM)
MIC90 ([2]; Acinetobacter baumannii, 52): 128 µg/mL (≈ 190 µM)
MIC90 ([3]; Klebsiella pneumoniae): 64 µg/mL (≈ 94.9 µM)
MIC90 ([4]; Klebsiella pneumoniae): 1 µg/mL (≈ 1.48 µM)
MIC90 [5, 20]: 32 µg/mL (≈ 47.4 µM)
MIC90 ([6]; Klebsiella pneumoniae): 0.5 µg/mL (≈ 0.741 µM)
MIC90 ([7]; Pseudomonas aeruginosa, 6065Y): 16 µg/mL (≈ 23.7 µM)
MIC90 ([8]; Pseudomonas aeruginosa, 43): 64 µg/mL (≈ 94.9 µM)
MIC90 ([9]; Pseudomonas aeruginosa, 40): 8 µg/mL (≈ 11.9 µM)
MIC90 ([10]; Enterobacter cloacae): 0.5 µg/mL (≈ 0.741 µM)
MIC90 ([11]; Escherichia coli, AG100): 0.125 µg/mL (≈ 0.185 µM)
MIC90 [12, 21]: 1 µg/mL (≈ 1.48 µM)
MIC90 ([13]; Escherichia coli): 0.25 µg/mL (≈ 0.371 µM)
MIC90 ([14]; Klebsiella pneumoniae): 0.5 µg/mL (≈ 0.741 µM)
MIC90 ([15]; Pseudomonas aeruginosa, 1912E): 2 µg/mL (≈ 2.96 µM)
MIC90 [16, 22]: 8 µg/mL (≈ 11.9 µM)
MIC90 ([17]; Moraxella catarrhalis, 2524): < 0.0625 µg/mL
MIC90 [18, 23]: > 128 µg/mL
MIC90 ([19]; Klebsiella pneumoniae): 0.5 µg/mL (≈ 0.741 µM)

SMILES: CC(C)(ON=C(C(=O)NC1C(=O)N2C(C(=O)O)=C(C=CC[n+]3cnc(N)c(NC(=O)CCN)c3N)CSC12)c1csc(N)n1)C(=O)O.O=C([O-])C(F)(F)F (stereo not shown) [Compound 45]
MIC90 ([1]; K. pneumoniae 2011E): 0.5 µg/mL
MIC90 ([2]; A. baumannii 52): >128 µg/mL
MIC90 ([3]; K. pneumoniae β11): 16 µg/mL
MIC90 ([4]; K. pneumoniae β9): 0.5 µg/mL
MIC90 ([5]; P. aeruginosa 37): 16 µg/mL
MIC90 ([6]; K. pneumoniae β13): 0.5 µg/mL
MIC90 [7]: 16 µg/mL
MIC90 ([8]; P. aeruginosa 43): >128 µg/mL
MIC90 ([9]; P. aeruginosa 40): 8 µg/mL
MIC90 [10]: 0.25 µg/mL
MIC90 ([11]; E. coli AG100): 0.25 µg/mL
MIC90 ([12]; A. calcoaceticus ATCC15473): 2 µg/mL
MIC90 [13]: 0.25 µg/mL
MIC90 ([14]; K. pneumoniae β10): 0.5 µg/mL
MIC90 [15]: 4 µg/mL
MIC90 ([16]; A. baumannii 46): 16 µg/mL
MIC90 ([17]; M. catarrhalis 2524): <0.0625 µg/mL
MIC90 ([18]; A. baumannii 49): >128 µg/mL
MIC90 [19]: 1 µg/mL

MIC90 ([1]; Klebsiella pneumoniae, 2011E, K. pneumoniae 2011E, read-out: MIC90): 0.5 µg/mL (≈ 0.61 µM)
MIC90 ([2]; Acinetobacter baumannii, A. baumannii 52, read-out: MIC90): 16 µg/mL (≈ 19.5 µM)
MIC90 ([3]; Klebsiella pneumoniae, K. pneumoniae β11, read-out: MIC90): 2 µg/mL (≈ 2.44 µM)
MIC90 ([4]; Klebsiella pneumoniae, K. pneumoniae β9, read-out: MIC90): < 0.0625 µg/mL
MIC90 ([5]; Pseudomonas aeruginosa, 37, P. aeruginosa 37, read-out: MIC90): < 0.0625 µg/mL
MIC90 ([6]; Klebsiella pneumoniae, K. pneumoniae β13, read-out: MIC90): 0.125 µg/mL (≈ 0.152 µM)
MIC90 ([7]; Pseudomonas aeruginosa, read-out: MIC90): 0.5 µg/mL (≈ 0.61 µM)
MIC90 ([8]; Pseudomonas aeruginosa, P. aeruginosa 43, read-out: MIC90): 0.25 µg/mL (≈ 0.305 µM)
MIC90 ([9]; Pseudomonas aeruginosa, 40, P. aeruginosa 40, read-out: MIC90): 0.25 µg/mL (≈ 0.305 µM)
MIC90 ([10]; Enterobacter cloacae, read-out: MIC90): 0.5 µg/mL (≈ 0.61 µM)
MIC90 ([11]; Escherichia coli, AG100, E. coli AG100, read-out: MIC90): < 0.0625 µg/mL
MIC90 ([12]; Acinetobacter calcoaceticus, A. calcoaceticus ATCC15473, read-out: MIC90): 0.5 µg/mL (≈ 0.61 µM)
MIC90 ([13]; Escherichia coli, read-out: MIC90): < 0.0625 µg/mL
MIC90 ([14]; Klebsiella pneumoniae, K. pneumoniae β10, read-out: MIC90): < 0.0625 µg/mL
MIC90 ([15]; Pseudomonas aeruginosa, 1912E, read-out: MIC90): 0.25 µg/mL (≈ 0.305 µM)
MIC90 ([16]; Acinetobacter baumannii, A. baumannii 46, read-out: MIC90): 2 µg/mL (≈ 2.44 µM)
MIC90 ([17]; Moraxella catarrhalis, M. catarrhalis 2524, read-out: MIC90): < 0.0625 µg/mL
MIC90 ([18]; Acinetobacter baumannii, A. baumannii 49, read-out: MIC90): 32 µg/mL (≈ 39 µM)
MIC90 ([19]; Klebsiella pneumoniae, read-out: MIC90): 4 µg/mL (≈ 4.88 µM)
SMILES: C[C@H](O/N=C(\C(=O)N[C@@H]1C(=O)N2C(C(=O)[O-])=C(/C=C/C[n+]3cnc(N)c(NCCNC(=O)c4cc(=O)c(O)cn4O)c3)CSC12)c1nc(N)sc1Cl)C(=O)O (stereo partly shown) [Compound 24]

SMILES: C[C@H](O/N=C(\C(=O)N[C@@H]1C(=O)N2C(C(=O)[O-])=C(C[n+]3cnc(NCCN)c(NCCNC(=O)c4cc(=O)c(O)cn4O)c3)CSC12)c1nc(N)sc1Cl)C(=O)O (stereo partly shown) [Compound 21]
MIC90 ([1]; Klebsiella pneumoniae, 2011E): 4 µg/mL (≈ 4.78 µM)
MIC90 ([2]; Acinetobacter baumannii, 52): 2 µg/mL (≈ 2.39 µM)
MIC90 ([3]; Klebsiella pneumoniae): 8 µg/mL (≈ 9.56 µM)
MIC90 ([4]; Klebsiella pneumoniae): 2 µg/mL (≈ 2.39 µM)
MIC90 [5, 20]: 32 µg/mL (≈ 38.2 µM)
MIC90 ([6]; Klebsiella pneumoniae): 2 µg/mL (≈ 2.39 µM)
MIC90 ([7]; Pseudomonas aeruginosa, 6065Y): 4 µg/mL (≈ 4.78 µM)
MIC90 ([8]; Pseudomonas aeruginosa, 43): 2 µg/mL (≈ 2.39 µM)
MIC90 ([9]; Pseudomonas aeruginosa, 40): 8 µg/mL (≈ 9.56 µM)
MIC90 ([10]; Enterobacter cloacae): 16 µg/mL (≈ 19.1 µM)
MIC90 ([11]; Escherichia coli, AG100): 0.5 µg/mL (≈ 0.597 µM)
MIC90 [12, 21]: 1 µg/mL (≈ 1.19 µM)
MIC90 ([13]; Escherichia coli): 4 µg/mL (≈ 4.78 µM)
MIC90 ([14]; Klebsiella pneumoniae): 2 µg/mL (≈ 2.39 µM)
MIC90 ([15]; Pseudomonas aeruginosa, 1912E): 4 µg/mL (≈ 4.78 µM)
MIC90 [16, 22]: 16 µg/mL (≈ 19.1 µM)
MIC90 ([17]; Moraxella catarrhalis, 2524): 0.125 µg/mL (≈ 0.149 µM)
MIC90 [18, 23]: 8 µg/mL (≈ 9.56 µM)
MIC90 ([19]; Klebsiella pneumoniae): 16 µg/mL (≈ 19.1 µM)

MIC90 ([1]; K. pneumoniae 2011E): 4 µg/mL (≈ 5.91 µM)
MIC90 ([2]; A. baumannii 52): 128 µg/mL (≈ 189 µM)
MIC90 ([5]; P. aeruginosa 37): 64 µg/mL (≈ 94.6 µM)
MIC90 [7]: 128 µg/mL (≈ 189 µM)
MIC90 ([8]; P. aeruginosa 43): 128 µg/mL (≈ 189 µM)
MIC90 ([9]; P. aeruginosa 40): 32 µg/mL (≈ 47.3 µM)
MIC90 [10]: 128 µg/mL (≈ 189 µM)
MIC90 ([11]; E. coli AG100): >128 µg/mL
MIC90 ([12]; A. calcoaceticus ATCC15473): 8 µg/mL (≈ 11.8 µM)
MIC90 [13]: 16 µg/mL (≈ 23.6 µM)
MIC90 [15]: 8 µg/mL (≈ 11.8 µM)
MIC90 ([16]; A. baumannii 46): 16 µg/mL (≈ 23.6 µM)
MIC90 ([17]; M. catarrhalis 2524): 0.25 µg/mL (≈ 0.369 µM)
MIC90 ([18]; A. baumannii 49): >128 µg/mL
MIC90 [19]: 32 µg/mL (≈ 47.3 µM)
SMILES: CC(C)(ON=C(C(=O)NC1C(=O)N2C(C(=O)[O-])=C(C[n+]3cnc(N)c(NCC=CC(=O)NO)c3)CSC12)c1csc(N)n1)C(=O)O (stereo not shown) [Compound 47]
